The experiment deals with T1, RO3G (UDP-glycosyltransferase candidate, EIE92684.1) (Rhizopus delemar, UniProt I1CW54).
T1 construct: gene RO3G_17395; codon-optimised synthetic gene in pCDFDuet-1, expressed in E. coli BL21(DE3); no predicted signal peptide; not purified
T1 sequence (I1CW54 1-527): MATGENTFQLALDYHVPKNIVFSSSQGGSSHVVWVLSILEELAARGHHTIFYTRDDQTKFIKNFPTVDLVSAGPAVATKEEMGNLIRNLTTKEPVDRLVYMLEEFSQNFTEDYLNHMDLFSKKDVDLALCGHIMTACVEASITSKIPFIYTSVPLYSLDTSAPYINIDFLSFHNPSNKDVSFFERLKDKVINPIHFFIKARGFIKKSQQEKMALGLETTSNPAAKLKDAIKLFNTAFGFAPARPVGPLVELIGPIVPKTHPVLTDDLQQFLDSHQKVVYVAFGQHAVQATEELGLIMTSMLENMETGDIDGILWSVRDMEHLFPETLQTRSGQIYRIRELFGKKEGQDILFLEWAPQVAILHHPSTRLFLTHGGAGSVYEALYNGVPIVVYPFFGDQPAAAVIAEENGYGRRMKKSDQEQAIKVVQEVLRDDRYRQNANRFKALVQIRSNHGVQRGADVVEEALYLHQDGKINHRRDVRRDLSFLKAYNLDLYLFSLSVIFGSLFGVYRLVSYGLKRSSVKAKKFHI
The experiment in a line: 1-dodecanol feeding of expressing E. coli; lauryl glucoside by HPLC-RI and LC-MS. It counts as cell-based. Conditions: whole E. coli BL21(DE3), M9 with 2% glucose, 2.0 mM 1-dodecanol, 30 °C, 48 h; endogenous UDP-glucose as presumed donor; GFP strain as control.

We go through 1 molecule from paper PMC11561197, “Computational-guided discovery of UDP-glycosyltransferases for lauryl glucoside production using engineered E. coli” (Bioresources and Bioprocessing, 2024).

Consider `CCCCCCCCCCCCO` [1-dodecanol], for which the “1-dodecanol feeding of expressing E. coli; lauryl glucoside by HPLC-RI and LC-MS” value was “The engineered strain successfully converted 1-dodecanol to lauryl glucoside, as quantified by HPLC”.
